From US20140051679A1, “KINASE INHIBITORS AND METHOD OF TREATING CANCER WITH SAME” (UNIVERISTY HEALTH NETWORKS, priority 2011, published 2014)
pIC50: −log10 of the molar value.

What was measured:
human PLK4 = target: T1, human PLK4 (Homo sapiens, UniProt O00444); experiment: PLK4 inhibition assay (indirect ELISA); assay type: biochemical; conditions: GST-PLK4 4 nM, 15 μM ATP; read-out: IC50 Ranges PLK4
T1 construct: amino terminal GST fusion of residues 1-391 of human PLK4; made in house; host or cells: E. coli
T1 sequence (O00444 1-391): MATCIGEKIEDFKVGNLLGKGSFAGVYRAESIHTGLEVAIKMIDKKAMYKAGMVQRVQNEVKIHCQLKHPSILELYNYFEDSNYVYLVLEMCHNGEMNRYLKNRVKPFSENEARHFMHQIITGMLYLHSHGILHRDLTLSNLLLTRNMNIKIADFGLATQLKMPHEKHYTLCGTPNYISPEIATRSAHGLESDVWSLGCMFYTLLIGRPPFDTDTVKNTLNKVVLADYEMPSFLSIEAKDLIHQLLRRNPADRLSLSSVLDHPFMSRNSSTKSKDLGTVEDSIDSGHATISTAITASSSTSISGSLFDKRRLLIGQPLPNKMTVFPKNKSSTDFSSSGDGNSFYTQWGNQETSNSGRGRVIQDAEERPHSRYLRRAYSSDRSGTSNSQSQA
Procedure, shortened: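 Dephosphorylated GST-tagged human PLK4 (residues 1-391, E. coli), 4 nM, preincubated 15 min with compound, then reacted 30 min with 15 μM ATP on MBP-coated plates (50 mM HEPES pH 7.5, 10 mM MgCl2, 0.01% Brij 35). Phospho-MBP detected by antibody ELISA at 450 nm. Tested at 10 μM or 10-point titrations; IC50 from 4-parameter logistic fit.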

[1] = system: MDA-MB-468 breast cancer cells; experiment: Cell growth inhibition, Sulforhodamine B assay, MDA-MB-468; assay type: cell-based; conditions: Homo sapiens, 120 h, 5 days culture, SRB assay, read-out: Cell Line GI50 Range MDA-MB-468
[2] = system: OVCAR-3 ovarian cancer cells; experiment: Cell growth inhibition, Sulforhodamine B assay, OVCAR-3; assay type: cell-based; conditions: Homo sapiens, 120 h, 5 days culture, SRB assay, read-out: Cell Line GI50 Range OVCAR-3
human TTK = target: T2, human TTK (Homo sapiens, UniProt P33981); experiment: TTK inhibition assay (indirect ELISA); assay type: biochemical; conditions: GST-TTK 0.68 nM, 16 μM ATP; read-out: IC50 Ranges TTK
T2 construct: amino terminal GST fusion of full length human TTK; purchased Invitrogen
T2 sequence (P33981 1-857): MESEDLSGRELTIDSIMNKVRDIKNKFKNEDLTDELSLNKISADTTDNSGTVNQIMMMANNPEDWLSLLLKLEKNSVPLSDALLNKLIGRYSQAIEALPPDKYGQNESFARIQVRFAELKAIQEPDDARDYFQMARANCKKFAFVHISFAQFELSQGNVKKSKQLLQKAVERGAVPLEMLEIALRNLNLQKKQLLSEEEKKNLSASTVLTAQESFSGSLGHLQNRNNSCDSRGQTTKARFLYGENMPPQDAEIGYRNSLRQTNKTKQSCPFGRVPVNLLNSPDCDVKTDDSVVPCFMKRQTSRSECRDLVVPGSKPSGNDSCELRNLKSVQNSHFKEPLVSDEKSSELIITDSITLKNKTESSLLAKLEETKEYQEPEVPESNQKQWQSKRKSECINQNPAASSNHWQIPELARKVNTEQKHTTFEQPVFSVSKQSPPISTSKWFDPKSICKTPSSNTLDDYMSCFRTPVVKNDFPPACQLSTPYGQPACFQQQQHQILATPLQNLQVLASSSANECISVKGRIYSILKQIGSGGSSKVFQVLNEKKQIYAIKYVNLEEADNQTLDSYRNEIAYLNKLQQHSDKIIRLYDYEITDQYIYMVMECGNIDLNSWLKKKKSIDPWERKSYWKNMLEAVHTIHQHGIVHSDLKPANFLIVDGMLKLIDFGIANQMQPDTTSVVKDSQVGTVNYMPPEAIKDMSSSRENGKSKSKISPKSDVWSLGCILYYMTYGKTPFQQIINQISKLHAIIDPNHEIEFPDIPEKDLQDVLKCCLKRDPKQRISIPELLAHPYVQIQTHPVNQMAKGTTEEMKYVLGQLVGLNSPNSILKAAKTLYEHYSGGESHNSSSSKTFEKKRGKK

[3] = system: HCT116 colon cancer cells; experiment: Cell growth inhibition, Sulforhodamine B assay, HCT116; assay type: cell-based; conditions: Homo sapiens, HCT-116, 120 h, 5 days culture, SRB assay, read-out: Cell Line GI50 Range HCT116
[4] = system: MDA-MB-231 breast cancer cells; experiment: Cell growth inhibition, Sulforhodamine B assay, MDA-MB-231; assay type: cell-based; conditions: Homo sapiens, 120 h, 5 days culture, SRB assay, read-out: Cell Line GI50 Range MDA-MB-231
Procedure: Breast cancer cells (MDA-MB-231, MDA-MB-468), colon cancer cells (HCT116, HT29) and ovarian cancer cells (PA-1, OVCAR-3) were seeded (1000 to 4000 in 80 μl per well depending on the cell growth rate) into 96 well plates 24 hours before compound overlay. Compounds were prepared as 10 mM stock solutions in 100% DMSO which were diluted with DMEM (Dulbecco's Modified Eagle's Medium) cell growth Medium (Invitrogen, Burlington, ON, Canada) containing 10% FBS (Fetal Bovine Serum) to concentrations ranging from 50 nM to 250 μM. Aliquots (20 μl) from each concentration were overlaid to 80 μl of the pre-seeded cells in the 96 well plates to make final concentrations of 10 nM to 50 μM. The cells were cultured for 5 days before the Sulforhodamine B assay (SRB) was performed to determine the compound's cell growth inhibition activity.
Sulforhodamine B (purchased from Sigma, Oakville, ON, Canada) is a water-soluble dye that binds to the basic amino acids of the cellular proteins. Thus, colorimetric measurement of the bound dye provides an estimate of the total protein mass that is related to the cell number. the cells are fixed in situ by gently aspirating off the culture media and adding 50 μl ice cold 10% Trichloroacetic Acid (TCA) per well and incubate at 4° C. for 30-60 min, The plates are washed with water five times and allowed to air dry for 5 min. Addition of 50 μl 0.4% (w/v) SRB solution in 1% (v/v) acetic acid to each well and incubatation for 30 min at RT completes the staining reaction. Following staining, plates are washed four times with 1% acetic acid to remove unbound dye and then allowed to air dry for 5 min. The stain is solubilized with 100 μl of 10 mM Tris pH 10.5 per well. Absorbance is read at 570 nm.
The percentage (%) of relative growth inhibition was calculated by comparing to DMSO treated only cells (100%). […] The GI50 was calculated using GraphPad PRISM software (GraphPad Software, Inc., San Diego, Calif., USA).

Aurora B = target: T3, Aurora B (Homo sapiens, UniProt Q96GD4); experiment: Aurora B inhibition assay (Z-Lyte); assay type: biochemical; conditions: 28 nM Aurora B, 128 μM ATP; read-out: IC50 Ranges Aurora B
T3 construct: purchased Invitrogen PV3970
T3 sequence (Q96GD4 whole entry): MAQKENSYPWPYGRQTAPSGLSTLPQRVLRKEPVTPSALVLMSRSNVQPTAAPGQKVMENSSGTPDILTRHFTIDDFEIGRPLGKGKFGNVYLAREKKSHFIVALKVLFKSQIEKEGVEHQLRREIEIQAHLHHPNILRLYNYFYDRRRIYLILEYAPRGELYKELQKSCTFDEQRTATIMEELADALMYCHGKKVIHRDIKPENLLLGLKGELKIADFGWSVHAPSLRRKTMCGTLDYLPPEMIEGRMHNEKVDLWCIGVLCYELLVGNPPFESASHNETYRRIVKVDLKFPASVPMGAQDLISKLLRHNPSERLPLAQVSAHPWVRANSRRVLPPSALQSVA
Procedure: Aurora B inhibition was determined using the Z-Lyte assay kit from Invitrogen. The assay was performed using the recommended manufacturer's instructions with 128 μM ATP and 28 nM Aurora B (Invitrogen cat #PV3970). The % inhibition values were determined according to the manufacturer's directions and IC50 values were obtained using a non-linear 4 point logistic curve fit (XLfit4, IDBS)

HT29 colon cancer cells = experiment: Cell growth inhibition, Sulforhodamine B assay, HT29; assay type: cell-based; conditions: Homo sapiens, HT-29, 120 h, 5 days culture, SRB assay, read-out: Cell Line GI50 Range HT29

Structure (SMILES)	pIC50 (human PLK4)	GI50 [1]	GI50 [2]	pIC50 (human TTK)	GI50 [3]	GI50 [4]	pIC50 (Aurora B)	GI50 (HT29 colon cancer cells)
O=C(Nc1ccc2[nH]nc(-c3ccc(OC4CCNCC4)cc3)c2c1)C(c1ccsc1)N1CCCC1 (stereo not shown) [Example A28, N-(3-(4-(piperidin-4-yloxy)phenyl)-1H-indazol-5-yl)-2-(pyrrolidin-1-yl)-2-(thiophen-3-yl)acetamide]	≥ 5.30	≤ 5 µM	5 to 20 µM	≥ 5.30	≤ 5 µM	≤ 5 µM	≥ 5.30	≤ 5 µM
CC(C)N1CCC(Oc2ccc(-c3n[nH]c4ccc(NC(=O)C(c5ccsc5)N5CCCC5)cc34)cc2)CC1 (stereo not shown) [Example A30, N-(3-(4-((1-isopropylpiperidin-4-yl)oxy)phenyl)-1H-indazol-5-yl)-2-(pyrrolidin-1-yl)-2-(thiophen-3-yl)acetamide]	≥ 5.30	≤ 5 µM	≤ 5 µM	≥ 5.30	≤ 5 µM	≤ 5 µM	≥ 5.30	≤ 5 µM
CN1CCC(Oc2ccc(-c3n[nH]c4ccc(NC(=O)C(c5ccsc5)N5CCCCC5)cc34)cc2)CC1 (stereo not shown) [Example A31, N-(3-(4-((1-methylpiperidin-4-yl)oxy)phenyl)-1H-indazol-5-yl)-2-(piperidin-1-yl)-2-(thiophen-3-yl)acetamide]	≥ 5.30	≤ 5 µM	≤ 5 µM	≥ 5.30	≤ 5 µM	≤ 5 µM	≥ 5.30	≤ 5 µM
O=C(Nc1ccc2[nH]nc(-c3ccc(N4CCOCC4)cc3)c2c1)C(c1ccsc1)N1CCCCC1 (stereo not shown) [Example A32, N-(3-(4-morpholinophenyl)-1H-indazol-5-yl)-2-(piperidin-1-yl)-2-(thiophen-3-yl)acetamide]	≥ 5.30	≤ 5 µM	5 to 20 µM	≥ 5.30	≤ 5 µM	20 to 50 µM	≥ 5.30	≤ 5 µM
O=C(Nc1ccc2[nH]nc(-c3ccc(OC4CCNCC4)c(Cl)c3)c2c1)C(c1ccsc1)N1CCCC1 (stereo not shown) [Example A34, N-(3-(3-chloro-4-(piperidin-4-yloxy)phenyl)-1H-indazol-5-yl)-2-(pyrrolidin-1-yl)-2-(thiophen-3-yl)acetamide]	≥ 5.30	≤ 5 µM	≤ 5 µM	≥ 5.30	≤ 5 µM	≤ 5 µM	≥ 5.30	≤ 5 µM
CN1CCC(Oc2ccc(-c3n[nH]c4ccc(NC(=O)Nc5ccccc5Cl)cc34)cc2)CC1 [Example A62, 1-(2-chlorophenyl)-3-(3-(4-((1-methylpiperidin-4-yl)oxy)phenyl)-1H-indazol-5-yl)urea]	≥ 5.30	≤ 5 µM	≤ 5 µM	≥ 5.30	≤ 5 µM	≤ 5 µM	–	≤ 5 µM
Cc1cc(-c2n[nH]c3ccc(C(=O)NC(c4ccccc4)C4CC4)cc23)ccc1N1CCOCC1 (stereo not shown) [Example A64, N-(cyclopropyl(phenyl)methyl)-3-(3-methyl-4-morpholinophenyl)-1H-indazole-5-carboxamide]	≥ 5.30	5 to 20 µM	20 to 50 µM	≥ 5.30	≤ 5 µM	5 to 20 µM	–	≤ 5 µM
O=C(NC(c1ccccc1)C1CC1)c1ccc2[nH]nc(-c3ccc(N4CCOCC4)c(F)c3)c2c1 (stereo not shown) [Example A65, N-(cyclopropyl(phenyl)methyl)-3-(3-fluoro-4-morpholinophenyl)-1H-indazole-5-carboxamide]	≥ 5.30	≤ 5 µM	5 to 20 µM	≥ 5.30	≤ 5 µM	≤ 5 µM	–	≤ 5 µM
O=C(Nc1ccc2[nH]nc(-c3ccc(N4CCOCC4)cc3)c2c1)Nc1ccccc1Cl [Example A66, 1-(2-chlorophenyl)-3-(3-(4-morpholinophenyl)-1H-indazol-5-yl)urea]	≥ 5.30	5 to 20 µM	5 to 20 µM	≥ 5.30	≤ 5 µM	5 to 20 µM	–	≤ 5 µM
CN1CCN(Cc2ccc(-c3n[nH]c4ccc(NC(=O)C(c5ccsc5)N5CCCC5)cc34)cc2)CC1 (stereo not shown) [Example A67, N-(3-(4-((4-methylpiperazin-1-yl)methyl)phenyl)-1H-indazol-5-yl)-2-(pyrrolidin-1-yl)-2-(thiophen-3-yl)acetamide]	≥ 5.30	≤ 5 µM	5 to 20 µM	≥ 5.30	≤ 5 µM	≤ 5 µM	–	≤ 5 µM
O=C(Nc1ccc2[nH]nc(-c3ccc(NC4CCCCC4)cc3)c2c1)C(c1ccsc1)N1CCCC1 (stereo not shown) [Example A68, N-(3-(4-(cyclohexylamino)phenyl)-1H-indazol-5-yl)-2-(pyrrolidin-1-yl)-2-(thiophen-3-yl)acetamide]	≥ 5.30	≤ 5 µM	≤ 5 µM	≥ 5.30	≤ 5 µM	≤ 5 µM	–	≤ 5 µM
CN1CCC(Oc2ccc(-c3n[nH]c4ccc(NC(=O)N5CCCc6ccccc65)cc34)cc2)CC1 [Example A73, N-(3-(4-((1-methylpiperidin-4-yl)oxy)phenyl)-1H-indazol-5-yl)-3,4-dihydroquinoline-1(2H)-carboxamide]	≥ 5.30	≤ 5 µM	5 to 20 µM	≥ 5.30	≤ 5 µM	≤ 5 µM	–	≤ 5 µM
CN1CCC(Oc2ccc(-c3n[nH]c4ccc(C(=O)NCC(C)(C)N5CCOCC5)cc34)cc2)CC1 [Example A74, N-(2-methyl-2-morpholinopropyl)-3-(4-((1-methylpiperidin-4-yl)oxy)phenyl)-1H-indazole-5-carboxamide]	≥ 5.30	≤ 5 µM	20 to 50 µM	≥ 5.30	≤ 5 µM	5 to 20 µM	–	≤ 5 µM
CN1CCC(Oc2ccc(-c3n[nH]c4ccc(C(=O)NCC(c5ccsc5)N5CCOCC5)cc34)cc2)CC1 (stereo not shown) [Example A75, 3-(4-((1-methylpiperidin-4-yl)oxy)phenyl)-N-(2-morpholino-2-(thiophen-3-yl)ethyl)-1H-indazole-5-carboxamide]	≥ 5.30	≤ 5 µM	5 to 20 µM	≥ 5.30	≤ 5 µM	5 to 20 µM	–	≤ 5 µM
